Test results from ChEMBL document CHEMBL3091421, “Discovery of benzo[d]imidazo[5,1-b]thiazole as a new class of phosphodiesterase 10A inhibitors” (Bioorg Med Chem Lett, 2013).

Columns and labels:
Rattus norvegicus [1] = assay: Antipsychotic activity in Sprague-Dawley rat psychosis model assessed as inhibition of MK-801-induced stereotypy at 1 mg/kg, ip administered 5 mins prior to MK-801-challenge measured after 15 mins up to 1 hr relative to vehicle-treated control; assay type: functional; conditions: route intraperitoneal
Rattus norvegicus [2] = assay: Antipsychotic activity in Sprague-Dawley rat assessed as reduction in quipazine-induced head-twitches at 3 mg/kg, ip administered 15 mins prior to quipazine-challenge measured immediately relative to vehicle-treated control; assay type: functional; parameters: scale not given: the % may be the effect or the level left; conditions: route intraperitoneal
Rattus norvegicus [3] = assay: Antipsychotic activity in ip dosed Sprague-Dawley rat conditioned avoidance response model assessed as reduction in avoidance after 15 mins relative to vehicle-treated control; assay type: functional
[4] = Half life in Sprague-Dawley rat at 10 mg/kg, po by LC-MS/MS analysis; assay type: ADME, organism-based; parameters: dose 10 mg/kg, route oral; conditions: in vivo
Homo sapiens [5] = species on record: Homo sapiens; assay: Selectivity ratio of IC50 for PDE8A (unknown origin) to IC50 for human recombinant PDE10A
Rattus norvegicus [6] = assay: Antipsychotic activity in Sprague-Dawley rat psychosis model assessed as inhibition of MK-801-induced locomotion at 3 mg/kg, ip administered 5 mins prior to MK-801-challenge measured after 15 mins up to 1 hr relative to vehicle-treated control; assay type: functional; conditions: route intraperitoneal
Rattus norvegicus [7] = assay: Antipsychotic activity in Sprague-Dawley rat conditioned avoidance response model assessed as reduction in avoidance at 1 mg/kg, ip after 15 mins relative to vehicle-treated control; assay type: functional; parameters: scale not given: the % may be the effect or the level left; conditions: route intraperitoneal
Rattus norvegicus [8] = assay: Antipsychotic activity in Sprague-Dawley rat psychosis model assessed as inhibition of MK-801-induced ataxia at 3 mg/kg, ip administered 5 mins prior to MK-801-challenge measured after 15 mins up to 1 hr relative to vehicle-treated control; assay type: functional; conditions: route intraperitoneal
Homo sapiens [9] = species on record: Homo sapiens; assay: Selectivity ratio of IC50 for PDE4D (unknown origin) to IC50 for human recombinant PDE10A
Rattus norvegicus [10] = assay: Antipsychotic activity in Sprague-Dawley rat psychosis model assessed as inhibition of MK-801-induced ataxia at 1 mg/kg, ip administered 5 mins prior to MK-801-challenge measured after 15 mins up to 1 hr relative to vehicle-treated control; assay type: functional; conditions: route intraperitoneal
Rattus norvegicus [11] = assay: Antipsychotic activity in Sprague-Dawley rat assessed as reduction in quipazine-induced head-twitches at 6 mg/kg, ip administered 15 mins prior to quipazine-challenge measured immediately relative to vehicle-treated control; assay type: functional; parameters: scale not given: the % may be the effect or the level left; conditions: route intraperitoneal
Homo sapiens [12] = species on record: Homo sapiens; assay: Selectivity ratio of IC50 for PDE9A2 (unknown origin) to IC50 for human recombinant PDE10A
Rattus norvegicus [13] = assay: Antipsychotic activity in Sprague-Dawley rat psychosis model assessed as inhibition of MK-801-induced hyperlocomotion at 30 mg/kg, po administered 5 mins prior to MK-801-challenge measured after 15 mins up to 1 hr; assay type: functional
Homo sapiens [14] = species on record: Homo sapiens; assay: Selectivity ratio of IC50 for PDE1A (unknown origin) to IC50 for human recombinant PDE10A
Rattus norvegicus [15] = assay: Antipsychotic activity in ip dosed Sprague-Dawley rat psychosis model assessed as inhibition of MK-801-induced ataxia administered 5 mins prior to MK-801-challenge measured after 15 mins up to 1 hr relative to vehicle-treated control; assay type: functional, organism-based
Rattus norvegicus [16] = assay: Antipsychotic activity in Sprague-Dawley rat psychosis model assessed as inhibition of MK-801-induced stereotypy at 6 mg/kg, ip administered 5 mins prior to MK-801-challenge measured after 15 mins up to 1 hr relative to vehicle-treated control; assay type: functional; conditions: route intraperitoneal
Rattus norvegicus [17] = assay: Antipsychotic activity in ip dosed Sprague-Dawley rat psychosis model assessed as inhibition of MK-801-induced locomotion administered 5 mins prior to MK-801-challenge measured after 15 mins up to 1 hr relative to vehicle-treated control; assay type: functional
[18] = target: Dual specificity calcium/calmodulin-dependent 3',5'-cyclic nucleotide phosphodiesterase 1A (Homo sapiens) (UniProt P54750); assay: Inhibition of PDE1A (unknown origin) at 10 uM
Mus musculus [19] = assay: Antipsychotic activity in ip dosed CD-1 mouse assessed as reduction in apomorphine-induced sniffing behavior administered 15 mins prior to apomorphine-challenge measured immediately relative to vehicle-treated control; assay type: functional; conditions: CD-1, ip
Rattus norvegicus [20] = assay: Antipsychotic activity in Sprague-Dawley rat psychosis model assessed as inhibition of MK-801-induced hyperlocomotion at 10 mg/kg, ip administered 5 mins prior to MK-801-challenge measured after 15 mins up to 1 hr; assay type: functional; conditions: route intraperitoneal
[21] = Ratio of drug level in brain to plasma in Sprague-Dawley rat at 10 mg/kg, po after 30 mins; assay type: ADME, organism-based; parameters: dose 10 mg/kg, route oral; conditions: brain and plasma, read-out: BPR
Homo sapiens [22] = species on record: Homo sapiens; assay: Selectivity ratio of IC50 for PDE7A1 (unknown origin) to IC50 for human recombinant PDE10A
[23] = Drug uptake in Sprague-Dawley rat brain at 10 mg/kg, po after 30 mins; assay type: ADME, organism-based; parameters: dose 10 mg/kg, route oral; conditions: read-out: Drug uptake
Homo sapiens [24] = species on record: Homo sapiens; assay: Selectivity ratio of IC50 for PDE5A (unknown origin) to IC50 for human recombinant PDE10A
Rattus norvegicus [25] = assay: Antipsychotic activity in Sprague-Dawley rat psychosis model assessed as inhibition of MK-801-induced stereotypy at 10 mg/kg, ip administered 5 mins prior to MK-801-challenge measured after 15 mins up to 1 hr relative to vehicle-treated control; assay type: functional; conditions: route intraperitoneal
Rattus norvegicus [26] = assay: Antipsychotic activity in Sprague-Dawley rat psychosis model assessed as inhibition of MK-801-induced ataxia at 6 mg/kg, ip administered 5 mins prior to MK-801-challenge measured after 15 mins up to 1 hr relative to vehicle-treated control; assay type: functional; conditions: route intraperitoneal
[27] = Plasma concentration in Sprague-Dawley rat at 10 mg/kg, po after 30 mins; assay type: ADME, organism-based; parameters: dose 10 mg/kg, route oral
Mus musculus [28] = assay: Antipsychotic activity in ip dosed CD-1 mouse assessed as reduction in apomorphine-induced climbing behavior administered 15 mins prior to apomorphine-challenge measured immediately relative to vehicle-treated control; assay type: functional; conditions: CD-1, ip
Rattus norvegicus [29] = assay: Antipsychotic activity in Sprague-Dawley rat psychosis model assessed as inhibition of MK-801-induced stereotypy at 0.3 mg/kg, ip administered 5 mins prior to MK-801-challenge measured after 15 mins up to 1 hr relative to vehicle-treated control; assay type: functional; conditions: route intraperitoneal
Mus musculus [30] = assay: Ratio of ED50 for antipsychotic activity in ip dosed CD-1 mouse assessed as reduction in apomorphine-induced sniffing behavior to ED50 for antipsychotic activity in ip dosed CD-1 mouse assessed as reduction in apomorphine-induced climbing behavior; assay type: functional
Rattus norvegicus [31] = assay: Antipsychotic activity in Sprague-Dawley rat conditioned avoidance response model assessed as reduction in avoidance at 3 mg/kg, ip after 15 mins relative to vehicle-treated control; assay type: functional; parameters: scale not given: the % may be the effect or the level left; conditions: route intraperitoneal
Homo sapiens [32] = species on record: Homo sapiens; assay: Selectivity ratio of IC50 for PDE3A (unknown origin) to IC50 for human recombinant PDE10A
Rattus norvegicus [33] = assay: Antipsychotic activity in Sprague-Dawley rat psychosis model assessed as inhibition of MK-801-induced stereotypy at 3 mg/kg, ip administered 5 mins prior to MK-801-challenge measured after 15 mins up to 1 hr relative to vehicle-treated control; assay type: functional; conditions: route intraperitoneal
Homo sapiens [34] = species on record: Homo sapiens; assay: Selectivity ratio of IC50 for PDE11A (unknown origin) to IC50 for human recombinant PDE10A
[35] = target: 3',5'-cyclic-AMP phosphodiesterase 4D (Homo sapiens) (UniProt Q08499); assay: Inhibition of PDE4D (unknown origin) using cAMP as substrate at 10 uM after 30 mins
3',5'-cyclic-AMP phosphodiesterase 4D (Homo sapiens), sequence (Q08499 whole entry): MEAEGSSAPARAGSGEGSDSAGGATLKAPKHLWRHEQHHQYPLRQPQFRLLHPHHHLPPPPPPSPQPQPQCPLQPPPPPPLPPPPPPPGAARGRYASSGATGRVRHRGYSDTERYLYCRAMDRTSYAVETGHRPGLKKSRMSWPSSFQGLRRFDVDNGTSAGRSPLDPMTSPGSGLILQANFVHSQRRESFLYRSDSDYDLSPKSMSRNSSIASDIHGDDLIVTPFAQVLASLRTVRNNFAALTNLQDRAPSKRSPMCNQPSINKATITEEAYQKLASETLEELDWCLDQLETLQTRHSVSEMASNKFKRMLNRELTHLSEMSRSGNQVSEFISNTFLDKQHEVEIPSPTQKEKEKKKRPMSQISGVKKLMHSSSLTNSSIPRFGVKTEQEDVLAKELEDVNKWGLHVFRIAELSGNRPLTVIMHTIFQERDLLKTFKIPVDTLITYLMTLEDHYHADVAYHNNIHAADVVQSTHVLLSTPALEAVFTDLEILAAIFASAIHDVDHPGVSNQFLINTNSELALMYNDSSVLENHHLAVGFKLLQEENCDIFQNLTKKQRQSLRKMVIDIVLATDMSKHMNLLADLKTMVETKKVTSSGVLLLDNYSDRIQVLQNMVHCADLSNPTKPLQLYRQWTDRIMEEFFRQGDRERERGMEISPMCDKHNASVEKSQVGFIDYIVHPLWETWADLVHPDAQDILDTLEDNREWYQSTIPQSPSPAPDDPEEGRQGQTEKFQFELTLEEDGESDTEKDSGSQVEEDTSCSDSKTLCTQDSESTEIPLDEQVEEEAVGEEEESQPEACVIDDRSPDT

Dual specificity calcium/calmodulin-dependent 3',5'-cyclic nucleotide phosphodiesterase 1A (Homo sapiens), sequence (P54750 whole entry): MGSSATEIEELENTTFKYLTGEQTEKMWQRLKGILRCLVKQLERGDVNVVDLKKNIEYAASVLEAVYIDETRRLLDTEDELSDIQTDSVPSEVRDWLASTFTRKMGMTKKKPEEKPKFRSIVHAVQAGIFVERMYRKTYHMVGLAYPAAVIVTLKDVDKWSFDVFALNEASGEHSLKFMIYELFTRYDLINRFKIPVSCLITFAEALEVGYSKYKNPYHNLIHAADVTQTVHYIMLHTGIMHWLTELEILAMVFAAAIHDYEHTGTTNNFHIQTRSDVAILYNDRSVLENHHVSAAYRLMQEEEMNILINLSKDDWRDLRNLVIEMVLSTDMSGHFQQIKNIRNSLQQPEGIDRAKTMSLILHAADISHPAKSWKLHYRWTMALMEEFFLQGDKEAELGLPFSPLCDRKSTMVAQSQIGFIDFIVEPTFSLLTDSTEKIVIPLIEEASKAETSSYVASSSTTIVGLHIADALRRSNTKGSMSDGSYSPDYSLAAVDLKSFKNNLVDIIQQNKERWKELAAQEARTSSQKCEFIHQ

SMILES: Cc1nc(C2CCOCC2)n2c1sc1cc(OCc3ccc4ccccc4n3)ccc12
- inhibition in vivo at 1 mg/kg (Rattus norvegicus [1]): 27%
- Activity (Rattus norvegicus [2]): 67%
- Activity (Rattus norvegicus [3]): Dose-dependent effect
- ED50 (Rattus norvegicus [3]; 0.25 h): 1.6 mg/kg
- half-life [4]: 2.1 h
- Ratio IC50 (Homo sapiens [5]): > 500
- inhibition in vivo at 3 mg/kg (Rattus norvegicus [6]): 58%
- Activity (Rattus norvegicus [7]): 26%
- inhibition in vivo at 3 mg/kg (Rattus norvegicus [8]): 56%
- Ratio IC50 (Homo sapiens [9]): > 500
- inhibition in vivo at 1 mg/kg (Rattus norvegicus [10]): 10%
- Activity (Rattus norvegicus [11]): 76%
- Ratio IC50 (Homo sapiens [12]): > 500
- inhibition in vivo at 30 mg/kg (Rattus norvegicus [13]): 75%
- Ratio IC50 (Homo sapiens [14]): > 500
- inhibition (Rattus norvegicus [15]): Dose-dependent effect
- inhibition in vivo at 6 mg/kg (Rattus norvegicus [16]): 69%
- ED50 (Rattus norvegicus [17]): 1.44 mg/kg
- inhibition (Rattus norvegicus [17]): Dose-dependent effect
- inhibition [18]: 62.4%
- ED50 (Mus musculus [19]): 16.3 mg/kg
- inhibition in vivo at 10 mg/kg (Rattus norvegicus [20]): 92%
- Kp at 0.5 h [21]: 1.82
- Ratio IC50 (Homo sapiens [22]): > 500
- concentration at 0.5 h [23]: 672 ng/g
- Ratio IC50 (Homo sapiens [24]): > 500
- inhibition in vivo at 10 mg/kg (Rattus norvegicus [25]): 66%
- inhibition in vivo at 6 mg/kg (Rattus norvegicus [26]): 46%
- concentration at 0.5 h [27]: 370 ng/mL
- ED50 (Mus musculus [28]): 2.68 mg/kg
- inhibition in vivo at 0.3 mg/kg (Rattus norvegicus [29]): 58%
- Ratio ED50 (Mus musculus [30]): 6.08
- Activity (Rattus norvegicus [31]): 67%
- Ratio IC50 (Homo sapiens [32]): > 500
- inhibition in vivo at 3 mg/kg (Rattus norvegicus [33]): 27%
- Ratio IC50 (Homo sapiens [34]): > 500
- inhibition [35]: 0%
